# Experimental data taken from patent EP2929883A1, “Pyrazole derivatives as dihydroorotate dehydrogenase (DHODH) inhibitors” (INSTITUT PASTEUR, priority 2014, dated 2015).
# Test system: measles virus
# Assay: microbe, parasite or virus in culture
# Conditions: Measles morbillivirus, 24 h
row,Structure (SMILES),MIC50 [µM]
1,"CCOc1nn(-c2ncc(CC)cn2)c(C)c1Oc1cccc(Cl)c1Cl [example 80, 2-(4-(2,3-dichlorophenoxy)-3-ethoxy-5-methyl-1H-pyrazol-1-yl)-5-ethylpyrimidine]",0.05 to 0.5
2,"CC(C)Oc1nn(-c2ncc(C3CC3)cn2)c(Cl)c1Oc1ccccc1F [example 192, 2-(5-chloro-4-(2-fluorophenoxy)-3-isopropoxy-1H-pyrazol-1-yl)-5-cyclopropylpyrimidine]",0.0005 to 0.05
3,"CCOc1nn(-c2ccc(OC)cn2)c(C)c1Cc1ccccc1 [example 125, 2-(4-benzyl-3-ethoxy-5-methyl-1H-pyrazol-1-yl)-5-methoxypyridine]",0.5 to 5
4,"Cc1c(Oc2cccc(F)c2F)c(OC(C)C)nn1-c1ccc(C2CC2)cn1 [example 16, 5-cyclopropyl-2-(4-(2,3-difluorophenoxy)-3-isopropoxy-5-methyl-1H-pyrazol-1-yl)pyridine]",0.0005 to 0.05
5,"CCOc1nn(-c2ncc(CC)cn2)c(C)c1Sc1ccccc1 [example 152, 2-(3-ethoxy-5-methyl-4-(phenylthio)-1H-pyrazol-1-yl)-5-ethylpyrimidine]",0.05 to 0.5
6,"Cc1c(Oc2c(F)cccc2F)c(OC(C)C)nn1-c1ncc(Br)cn1 [example 58, 5-bromo-2-(4-(2,6-difluorophenoxy)-3-isopropoxy-5-methyl-1H-pyrazol-1-yl)pyrimidine]",0.0005 to 0.05
7,"Cc1c(Oc2ccc(F)cc2)c(OC(C)C)nn1-c1ccc(C2CC2)cn1 [example 98, 5-cyclopropyl-2-(4-(4-fluorophenoxy)-3-isopropoxy-5-methyl-1H-pyrazol-1-yl)pyridine]",0.5 to 5
8,"COc1cc(C2CC2)cnc1-n1nc(OC(C)C)c(Oc2c(F)cccc2F)c1C [example 189, 5-cyclopropyl-2-(4-(2,6-difluorophenoxy)-3-isopropoxy-5-methyl-1H-pyrazol-1-yl)-3-methoxypyridine]",0.0005 to 0.05
9,"CC(C)Oc1nn(-c2ccc(C3CC3)cn2)cc1S(=O)(=O)c1ccccc1 [example 180, 5-cyclopropyl-2-(3-isopropoxy-4-(phenylsulfonyl)-1H-pyrazol-1-yl)pyridine]",0.05 to 0.5
10,"CCOc1nn(-c2ccccn2)c(C)c1-c1cccc(Cl)c1 [example 156, 2-(4-(3-chlorophenyl)-3-ethoxy-5-methyl-1H-pyrazol-1-yl)pyridine]",> 5
11,"CCOc1nn(-c2ncc(C)cn2)c(C)c1Cc1ccccc1 [example 171, 2-(4-benzyl-3-ethoxy-5-methyl-1H-pyrazol-1-yl)-5-methylpyrimidine]",0.0005 to 0.05
12,"CCOc1nn(-c2ccc(C(F)(F)F)cn2)c(C)c1Cc1ccccc1 [example 38, 2-(4-benzyl-3-ethoxy-5-methyl-1H-pyrazol-1-yl)-5-(trifluoromethyl)pyridine]",0.5 to 5
13,"CCc1cnc(-n2nc(OC(C)C)c(Oc3ccccc3F)c2C)nc1 [example 50, 5-ethyl-2-(4-(2-fluorophenoxy)-3-isopropoxy-5-methyl-1H-pyrazol-1-yl)pyrimidine]",0.0005 to 0.05
14,"CCOc1nn(-c2ccccn2)c(C)c1Cc1cccc(Cl)c1 [example 163, 2-(4-(3-chlorobenzyl)-3-ethoxy-5-methyl-1H-pyrazol-1-yl)pyridine]",> 5
15,"CCc1cnc(-n2nc(OCCCN(C)C)c(Cc3ccccc3)c2C)nc1 [example 140, 3-(4-benzyl-1-(5-ethylpyrimidin-2-yl)-5-methyl-1H-pyrazol-3-yloxy)-N,N-dimethylpropan-1-amine]",0.5 to 5
16,"CCCc1cnc(-n2nc(OC(C)C)c(Oc3c(F)cccc3F)c2C)nc1 [example 6, 2-(4-(2,6-difluorophenoxy)-3-isopropoxy-5-methyl-1H-pyrazol-1-yl)-5-propylpyrimidine]",0.0005 to 0.05

row,Structure (SMILES),MIC50 [µM]
1,"CCOc1nn(-c2ncc(CC)c(Cc3ccccc3)n2)cc1I [example 167, 4-benzyl-2-(3-ethoxy-4-iodo-1H-pyrazol-1-yl)-5-ethylpyrimidine]",0.5 to 5
2,"COc1cc(-c2ccc(Cl)cc2Cl)n(-c2ccccn2)n1 [example 144, 2-(5-(2,4-dichlorophenyl)-3-methoxy-1H-pyrazol-1-yl)pyridine]",> 5
3,"COc1cnc(-n2nc(OC(C)C)c(Oc3c(F)cccc3F)c2C)nc1 [example 62, 2-(4-(2,6-difluorophenoxy)-3-isopropoxy-5-methyl-1H-pyrazol-1-yl)-5-methoxypyrimidine]",0.0005 to 0.05
4,"CC(C)Oc1nn(-c2ncc(C3CC3)cc2F)cc1Oc1ccccc1 [example 70, 5-cyclopropyl-3-fluoro-2-(3-isopropoxy-4-phenoxy-1H-pyrazol-1-yl)pyridine]",0.0005 to 0.05
5,"CC(=O)c1ccc(-n2nc(OC(C)C)c(Oc3c(F)cccc3F)c2C)nc1 [example 87, 1-(6-(4-(2,6-difluorophenoxy)-3-isopropoxy-5-methyl-1H-pyrazol-1-yl)pyridin-3-yl)ethanone]",0.05 to 0.5
6,"CCOc1nn(-c2ncc(C3CC3)cn2)c(C)c1Cc1ccccc1 [example 29, 2-(4-benzyl-3-ethoxy-5-methyl-1H-pyrazol-1-yl)-5-cyclopropylpyrimidine]",0.0005 to 0.05
7,"CCc1cnc(-n2nc(OC(C)C)c(Cc3ccc(F)cc3)c2C)nc1 [example 24, 5-ethyl-2-(4-(4-fluorobenzyl)-3-isopropoxy-5-methyl-1H-pyrazol-1-yl)pyrimidine]",0.0005 to 0.05
8,"CCc1nnc(-n2nc(OC(C)C)c(Oc3c(F)cccc3F)c2C)nc1O [example 118, 3-(4-(2,6-difluorophenoxy)-3-isopropoxy-5-methyl-1H-pyrazol-1-yl)-6-ethyl-1,2,4-triazin-5-ol]",0.0005 to 0.05
9,"Cc1nn(-c2ccc(Br)cn2)c(OC(C)C)c1Oc1c(F)cccc1F [example 60, 5-bromo-2-(4-(2,6-difluorophenoxy)-5-isopropoxy-3-methyl-1H-pyrazol-1-yl)pyridine]",> 5
10,"Cc1c(Oc2ccc(F)cc2F)c(OC(C)C)nn1-c1ccc(C2CC2)cn1 [example 17, 5-cyclopropyl-2-(4-(2,4-difluorophenoxy)-3-isopropoxy-5-methyl-1H-pyrazol-1-yl)pyridine]",0.05 to 0.5
11,"CCOc1nn(-c2ccccn2)c(C)c1-c1ccc(OC)cc1 [example 160, 2-(3-ethoxy-4-(4-methoxyphenyl)-5-methyl-1H-pyrazol-1-yl)pyridine]",> 5
12,"CCOc1nn(-c2nccc(C)n2)c(C)c1Cc1ccccc1 [example 113, 2-(4-benzyl-3-ethoxy-5-methyl-1H-pyrazol-1-yl)-4-methylpyrimidine]",0.5 to 5
13,"Cc1c(Oc2c(F)cccc2F)c(OC(C)C)nn1-c1ncc(C2CC2)cc1N(C)C [example 190, 5-cyclopropyl-2-(4-(2,6-difluorophenoxy)-3-isopropoxy-5-methyl-1H-pyrazol-1-yl)-N,N-dimethylpyridin-3-amine]",0.0005 to 0.05
14,"Cc1c(Cc2ccccc2)c(=O)n(-c2ncc(Br)cn2)n1-c1ncc(Br)cn1 [example 44, 4-benzyl-1,2-bis(5-bromopyrimidin-2-yl)-5-methyl-1H-pyrazol-3(2H)-one]",0.5 to 5
15,"CCOc1nn(-c2ncc(C3CC3)cc2F)c(C)c1Cc1ccccc1 [example 35, 2-(4-benzyl-3-ethoxy-5-methyl-1H-pyrazol-1-yl)-5-cyclopropyl-3-fluoropyridine]",0.05 to 0.5

# Same assay, conditions: Measles morbillivirus, HEK-293T, read-out: IC50 on the measles virus
row,Structure (SMILES),IC50 [nM]
1,"Cc1c(-c2ccc(-c3ccccc3F)cc2)nc2ccc(F)cc2c1C(=O)O [brequinar, reference compound]",40
